Counter-ions that a name gives are not always drawn.
Tests used:
Type in all cases: physicochemical
[1] = Stability of ceftolozane salts at 40° C. and 75% RH for one week, loss of purity by HPLC; conditions: 40° C. and 75% relative humidity, one week (7 days), initial purity minus purity after storage
Method: (§1) The ceftolozane salt forms provided herein can also be evaluated for stability upon exposure to high temperatures and humidity. The stability evaluation of the ceftolozane salts can be carried out by HPLC analysis using, for example, the method described in Example 1. For examples, the ceftolozane salt forms can be subjected to 40° C. and 75% relative humidity (RH) for one week (7 days) or, 25° C. and 60% relative humidity (RH) for two weeks or for four weeks. The purity and loss of purity (LOP) of these samples can be evaluated by measuring the amount of ceftolozane by HPLC (e.g., Example 1). The results of the stability analysis are summarized in the following Table B: Unless otherwise indicated herein, the HPLC method of Example 1 was used to measure ceftolozane purity disclosed herein. The loss of purity (LOP) was calculated as the difference between the initial ceftolozane purity and the ceftolozane purity after being subject to the conditions of the stability test (e.g., at 40° C. and 75% relative humidity (RH) for one week), wherein the purity was measured using the HPLC method described below. Standards and samples are prepared in 50 mM sodium perchlorate monohydrate, pH 4.00. A quantitation standard (Standard Solution 1) and check standard (Standard Solution 2) are both prepared at the target working concentration of 0.3 mg/mL taking into consideration the potency, as-is of the standard. The samples are prepared at the target active concentration of 0.3 mg/mL by preparing a sample at 0.04% (w/v). [table]

[2] = Stability of ceftolozane salts at 25° C. and 60% RH for two or four weeks, loss of purity by HPLC; conditions: 25° C. and 60% relative humidity; for 4 w, Loss of Purity: four weeks; for 2 w, Loss of Purity: two weeks (14 days)
Method: as §1

[3] = Dry stability of lyophilized ceftolozane zwitterion/stabilizing agent compositions at 40° C./75% RH, purity by HPLC; conditions: lyophilized solid
Method: The following HPLC method was used to measure ceftolozane purity disclosed in Examples 13 through 15.
HPLC conditions for Ceftolozane Purity:
Mobile Phase A: 50 mM Sodium Perchlorate, pH 2.5
Mobile Phase B: 20% ACN in 63 mM Sodium Perchlorate, pH 2.5
Column: Phenomenex Develosil ODS-UG-5, 5 μm, 250 mm×4.6 mm
Sample Solution: 1 mg/mL in water
Active ceftolozane zwitterion (“Cef”; 1620 mg; 2.1 mmol) and sodium chloride (122 mg; 2.1 mmol) were dissolved in 8.25 mL of sterile water to obtain pale yellowish solution. Aliquoted the complex solution to 5-mL freeze drying vials (0.45 mL per vial, 18 vials in total) which were positioned in a lyophilization tray. The key lyophilization conditions included freezing at −50° C. to −55° C. for 2 hours, primary drying at −30° C., 50 millitorrs for 40 hours, secondary drying at 20° C., 50 millitorrs for 7 hours, and storing at 5° C., 600 millitorrs until harvesting. The sublimate was condensed at −60° C. The freeze drying vials were harvested, inserted with proper stoppers, sealed with crimp seals, and labeled as Cef:NaCl(1:1) for dry stability evaluation at 40° C./75% RH. The vials were stored at 40° C. and 75% relative humidity (RH).
The following compositions were prepared analogously: ceftolozane zwitterion and sodium chloride (1:0.5) complex, ceftolozane zwitterion and sodium chloride (1:2) complex, ceftolozane zwitterion and sodium sulfate (1:1) complex, ceftolozane zwitterion and sodium sulfate (1:0.5) complex, ceftolozane zwitterion and sodium sulfate (1:2) complex, ceftolozane zwitterion and calcium chloride (1:1) complex, ceftolozane zwitterion and calcium chloride (1:0.5) complex, ceftolozane zwitterion and calcium chloride (1:2) complex, ceftolozane zwitterion and magnesium chloride (1:1) complex, ceftolozane zwitterion and magnesium chloride (1:0.5) complex, ceftolozane zwitterion and magnesium chloride (1:2) complex.
These compositions and ceftolozane zwitterion alone were evaluated for stability at 40° C./75% RH by HPLC. The dry samples were dissolved in water for loading onto the column.

[4] = listed as phosphate salt of ceftolozane

Row | Compound | 1 w, Loss of Purity [1] | 4 w, Loss of Purity [2] | 2 w, Loss of Purity [2] | other results
1 | Cn1c(N)c(NC(=O)NCCN)c[n+]1CC1=C(C(=O)O)N2C(=O)[C@@H](NC(=O)/C(=N\OC(C)(C)C(=O)O)c3nsc(N)n3)[C@H]2SC1 [Ceftolozane sulfate, 5-amino-4-{[(2-aminoethyl)carbamoyl]amino}-2-{[(6R,7R)-7-({(2Z)-2-(5-amino-1,2,4-thiadiazol-3-yl)-2-[(1-carboxy-1-methylethoxy)imino]acetyl}amino)-2-carboxy-8-oxo-5-thia-1-azabicyclo[4.2.0]oct-2-en-3-yl]methyl}-1-methyl-1H-pyrazolium monosulfate, reference compound] | 22.4% | 5.1% | 1.2% | –
2 | ceftolozane phosphate | 30.9% | 13.7% | 4.5% | 1 w, Loss of Purity [1, 4]: 30.9%; 4 w, Loss of Purity [2, 4]: 13.7%; 2 w, Loss of Purity [2, 4]: 4.5%
3 | ceftolozane mesylate | 8.3% | 4.3% | 1.3% | –
4 | ceftolozane ketoglutarate | 22.6% | 5.8% | 3.5% | –
5 | Cn1c(N)c(NC(=O)NCCN)c[n+]1CC1=C(C(=O)O)N2C(=O)[C@@H](NC(=O)/C(=N\OC(C)(C)C(=O)O)c3nsc(N)n3)[C@H]2SC1 [Ceftolozane chloride, ceftolozane chloride] | 7.5% | 2.9% | 1.0% | 1 w, Loss of Purity ([1]; listed as chloride salt of ceftolozane): 7.5%
6 | Cn1c(N)c(NC(=O)NCCN)c[n+]1CC1=C(C(=O)[O-])N2C(=O)[C@@H](NC(=O)/C(=N\OC(C)(C)C(=O)O)c3nsc(N)n3)[C@H]2SC1 [Ceftolozane zwitterion, (6R,7R)-3-[(5-amino-4-{[(2-aminoethyl)carbamoyl]amino}-1-methyl-1H-pyrazol-2-ium-2-yl)methyl]-7-({(2Z)-2-(5-amino-1,2,4-thiadiazol-3-yl)-2-[(1-carboxy-1-methylethoxy)imino]acetyl}amino)-8-oxo-5-thia-1-azabicyclo[4.2.0]oct-2-ene-2-carboxylate] | 14.4% | 7.4% | 3.6% | % purity of Ceftolozane, 3 day ([3]; 3 day at 40° C./75% RH): 88.0%; % purity of Ceftolozane, 7 day ([3]; 7 day at 40° C./75% RH): 84.5%; % purity of Ceftolozane, 14 day ([3]; 14 day at 40° C./75% RH): 77.9%; % purity of Ceftolozane, T0 ([3]; T0 (start of storage at 40° C./75% RH)): 92.6%
7 | ceftolozane edisylate | 9.6% | 1.7% | 1.5% | 4 w, Loss of Purity ([2]; listed as edisylate salt of ceftolozane): 1.7%
8 | ceftolozane bromide | 13.3% | 2.3% | 0.4% | 2 w, Loss of Purity ([2]; listed as bromide salt of ceftolozane): 0.4%
9 | ceftolozane maleate | 9.3% | 5.2% | 3.6% | –
